Consider 16 compounds from patent EP4620949A1, “ACKR3 MODULATORS FOR CARDIOVASCULAR OR ANTIPLATELET THERAPY” (Eberhard Karls Universität Tübingen (Medizinische Fakultät), priority 2024, dated 2025).

A word on the EC50: it is the concentration giving half of the maximal effect. High values mean weaker potency, low ones greater potency.

“And” between values parts separate entries of the source, which are not always exact repeats. Identical values can stand only once.

The assay concerns the target T1, human ACKR3 (Homo sapiens, UniProt P25106).
T1 construct: expressed in transfected cells; host or cells: HEK293T
Briefly: ACKR3 β-Arrestin recruitment assay (NanoLuc complementation, NanoBiT) in HEK293T cells. In kind it is cell-based. The conditions noted are these: for EC50: ACKR3, HEK293T cells, average value of three independent experiments; for Efficacy (Emax) vs CXCL12: efficacy of CXCL12 at 300 nM set as 100%, average of three independent experiments. How it is done:
ACKR3 β-Arrestin Recruitment Assay. […] T.; Encell, L. P.; Wood, K. V. Nanoluc complementation reporter optimized for accurate measurement of protein interactions in cells. […] B.; Reynders, N.; Vanderplasschen, A.; Ollert, M.; Bouvier, M.; Szpakowska, M.; Chevigné, A. Proadrenomedullin n-terminal 20 peptides (pamps) are agonists of the chemokine scavenger receptor ACKR3/CXCR7. […] The prepared cells were then treated with compounds at concentrations ranging from 0.3 nM to 100 µM. Induction of β-Arrestin recruitment to receptors was evaluated by measuring bioluminescence with a Mithras LB940 luminometer (Berthold Technologies).
All curves were fitted to data points generated from the mean of at least three independent experiments. Results with values of p < 0.05 were considered statistically significant.

T1 sequence (P25106 whole entry): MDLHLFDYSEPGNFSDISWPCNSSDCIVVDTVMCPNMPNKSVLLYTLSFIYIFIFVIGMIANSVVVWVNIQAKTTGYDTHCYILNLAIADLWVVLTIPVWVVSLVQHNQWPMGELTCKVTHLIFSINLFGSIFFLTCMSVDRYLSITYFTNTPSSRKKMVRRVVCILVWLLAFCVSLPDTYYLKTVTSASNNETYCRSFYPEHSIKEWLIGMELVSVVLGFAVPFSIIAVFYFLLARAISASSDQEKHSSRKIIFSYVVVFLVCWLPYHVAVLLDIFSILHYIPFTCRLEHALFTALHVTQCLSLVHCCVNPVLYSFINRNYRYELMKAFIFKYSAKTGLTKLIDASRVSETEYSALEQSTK
T1 sequence (P49407 whole entry partner): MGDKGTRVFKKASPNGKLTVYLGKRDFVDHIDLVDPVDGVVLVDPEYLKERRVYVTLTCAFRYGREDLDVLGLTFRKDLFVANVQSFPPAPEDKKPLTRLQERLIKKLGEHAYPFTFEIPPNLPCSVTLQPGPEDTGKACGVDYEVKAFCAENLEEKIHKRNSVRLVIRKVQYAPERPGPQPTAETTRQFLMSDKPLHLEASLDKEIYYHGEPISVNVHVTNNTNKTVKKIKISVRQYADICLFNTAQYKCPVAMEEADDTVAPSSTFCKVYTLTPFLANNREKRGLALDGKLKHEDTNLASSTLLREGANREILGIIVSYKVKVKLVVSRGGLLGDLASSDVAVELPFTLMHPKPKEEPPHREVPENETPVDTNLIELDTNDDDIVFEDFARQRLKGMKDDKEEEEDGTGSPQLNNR

Regarding `CN(CCCNC(=O)c1ccc(Br)s1)Cc1ccccc1` [Compound 2, N-(3-(benzyl(methyl)amino)propyl)-5-bromothiophene-2-carboxamide], the EC50 was 1.62 µM.
Still for that read-out and setting: under `CN(CCCNC(=O)c1cc2ccccc2s1)Cc1ccccc1` [Compound 3, N-(3-(benzyl(methyl)amino)propyl)benzo[b]thiophene-2-carboxamide] stands 0.775 µM; under `CN(CCCNC(=O)c1cc2ccccc2[nH]1)Cc1ccccc1` [Compound 4, N-(3-(benzyl(methyl)amino)propyl)-1H-indole-2-carboxamide], 2.67 µM.
As for `CN(CCCNC(=O)CSc1ccccc1)Cc1ccccc1` [Compound 7, N-(3-(benzyl(methyl)amino)propyl)-2-(phenylthio)acetamide], the EC50 was 809 µM and the “Efficacy (Emax) vs CXCL12” value was determined as 99%.
`Cc1ccc(-c2ccc(C(=O)NCCCN(C)Cc3ccccc3)s2)cc1` [Compound 9, N-(3-(benzyl(methyl)amino)propyl)-5-(p-tolyl)thiophene-2-carboxamide] had an EC50 of 0.576 µM.
`CN(CCCNC(=O)c1ccc(-c2ccc(C(C)(C)C)cc2)s1)Cc1ccccc1` [Compound 10, N-(3-(benzyl(methyl)amino)propyl)-5-(4-(tert-butyl)phenyl)thiophene-2-carboxamide] returned an EC50 of 10.2 µM.
In the case of `CN(CCCNC(=O)c1ccc(-c2ccncc2)s1)Cc1ccccc1` [Compound 13, N-(3-(benzyl(methyl)amino)propyl)-5-(pyridin-4-yl)thiophene-2-carboxamide], the EC50 was found to be 1.72 µM.
Compound `CN(CCCNC(=O)c1ccc(-c2cccc(F)c2)s1)Cc1ccccc1` [Compound 16, N-(3-(benzyl(methyl)amino)propyl)-5-(3-fluorophenyl)thiophene-2-carboxamide] came in with an EC50 of 0.267 µM. Also, the “more potent than 1” value (β-Arrestin recruitment potency relative to compound 1) is “up to 1.5 fold”.
For the compound `COc1ccc(CN(C)CCCNC(=O)c2ccc(-c3ccccc3)s2)cc1` [Compound 18, N-(3-((4-methoxybenzyl)(methyl)amino)propyl)-5-phenylthiophene-2-carboxamide], the half-maximal effective concentration (EC50) was 0.93 µM. In other words, the sub-micromolar range.
On the same count and under the same terms, under `CN(CCCNC(=O)c1ccc(-c2ccccc2)s1)Cc1ccc(F)cc1` [Compound 20, N-(3-((4-fluorobenzyl)(methyl)amino)propyl)-5-phenylthiophene-2-carboxamide] stands 0.37 µM.
Take `CC(C)N(CCCNC(=O)c1ccc(-c2ccccc2)s1)Cc1ccccc1` [Compound 24, N-(3-(benzyl(isopropyl)amino)propyl)-5-phenylthiophene-2-carboxamide]: the EC50 is 0.709 µM. This EC50 is about 1.9-fold higher than that of the compound before.
As for `CN(CCCNC(=O)c1ccc(-c2ccccc2)s1)Cc1cccc(NC(=O)c2ccc(F)cc2)c1` [Compound 36, N-(3-((3-(4-fluorobenzamido)benzyl)(methyl)amino)propyl)-5-phenylthiophene-2-carboxamide], the EC50 was 2.1 µM and 1.1 µM; the “Efficacy (Emax) vs CXCL12” value is 86%.
As for `CC(C)(C)NC(=O)C1CCN(CCCNC(=O)c2ccc(-c3ccccc3)s2)CC1` [Compound 37, N-(tert-butyl)-1-(3-(5-phenylthiophene-2-carboxamido)propyl)piperidine-4-carboxamide], the EC50 was 3.2 µM and 2.5 µM; the “Efficacy (Emax) vs CXCL12” value is 102%.
As to `CC(C)(C)OC(=O)N1CCCC(CNC(=O)c2ccc(-c3ccccc3)s2)C1` (stereo not drawn) [Compound 38, tert-butyl 3-((5-phenylthiophene-2-carboxamido)methyl)piperidine-1-carboxylate], the EC50 amounted to 4.68 µM.
Consider `O=C(Nc1cccc(CN2CCCN(C(=O)c3ccc(-c4ccccc4)s3)CC2)c1)c1ccc(F)cc1` [Compound 41, 4-fluoro-N-(3-((4-(5-phenylthiophene-2-carbonyl)-1,4-diazepan-1-yl)methyl)phenyl)benzamide], for which the EC50 is 76 µM and 89 µM; the “Efficacy (Emax) vs CXCL12” value is given as 50%.
The compound `O=C(Nc1cccc(CNC(=O)c2ccc(-c3ccccc3)s2)c1)c1ccc(F)cc1` [Compound 43, N-(3-(4-fluorobenzamido)benzyl)-5-phenylthiophene-2-carboxamide] registered an EC50 of 3.35 µM.
